Here are results for 12 compounds from ChEMBL document CHEMBL1201862, “PubChem BioAssay data set” (2004).

Molecules are shown by their SMILES.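 48-hour exposure; five concentrations; linearly interpolated endpoints. GI50 marks 50% less growth.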 The source made the active and inactive calls. No stated cut-off is given here; in the data, active = GI50 up to about 1.1 µM and inactive = higher.

Some test systems named below: SK-MEL-2; HCT-116; SN12C; HCT-15; LOX IMVI; SNB-75; HOP-92; NCI-H23; TK-10; SF-268; A549; SK-MEL-28; UACC-257; UACC-62; KM12; NCI-H522; IGROV-1; CAKI-1.
Holding throughout (assay): growth of human tumour cells (NCI), 48 h

Turning to `Nc1nc(O)c2c(ncn2CCO)n1`, the GI50 was > 100 µM (inactive) in the test on SK-MEL-2; > 100 µM (inactive) with HCT-116; > 100 µM (inactive) in the test with SN12C; more than 100 µM in the test on HCT-15; > 100 µM (inactive) in the test with LOX IMVI; > 100 µM (inactive) with SNB-75. Further, the GI50 with HOP-92, in the test on NCI-H23, with TK-10, with SF-268, with A549 and with SK-MEL-28 was > 100 µM (inactive) in each case. Moreover, the GI50 with UACC-257 and in the test with UACC-62 was > 100 µM (inactive) throughout.
On to `NC1=NS(=O)(=O)Nc2nc(-c3ccccc3)c(-c3ccccc3)nc21`, for which the GI50 in the test with KM12 is > 100 µM (inactive); in the test with SK-MEL-2 it was > 100 µM (inactive); in the test with HCT-116 it was > 100 µM (inactive); with SN12C it was > 100 µM (inactive); in the test with HCT-15, more than 100 µM; in the test with NCI-H522, > 100 µM (inactive). Also, the GI50 in the test on LOX IMVI, in the test on SNB-75, in the test on HOP-92, in the test with NCI-H23, with IGROV-1 and in the test on TK-10 was > 100 µM (inactive) throughout. Besides, the GI50 with SF-268, in the test on A549, with SK-MEL-28, in the test with UACC-257 and with UACC-62 was > 100 µM (inactive) each time.
For `Cc1cc(NCCCCCCCCNc2cc(C)nc3cc(N)ccc23)c2ccc(N)cc2n1`, the GI50 with KM12 is 12.5 µM (inactive); in the test on SK-MEL-2, 13.6 µM (inactive); with CAKI-1 it was 46.8 µM (inactive); in the test with SN12C it was 15.8 µM (inactive); with HCT-15 it was 41.5 µM; with NCI-H522, 3.78 µM (inactive). The GI50 in the test with LOX IMVI was 17.1 µM (inactive); in the test on SNB-75, 16.4 µM (inactive); in the test on NCI-H23, 14.3 µM (inactive); with TK-10 it was 44.9 µM (inactive); in the test on SF-268, 26.2 µM (inactive); in the test with A549, 18.3 µM (inactive). For the same compound, the GI50 in the test on SK-MEL-28 was 19.9 µM (inactive); in the test with UACC-257, 12.7 µM (inactive); with UACC-62 it was 17 µM (inactive).
For `Fc1ccc(C2SCc3nc4ccccc4n32)c(F)c1` (stereo unspecified), the GI50 in the test with KM12 was 46.3 µM (inactive); in the test with SK-MEL-2, 71.9 µM (inactive); with HCT-116, 54 µM (inactive); in the test with CAKI-1 it was > 100 µM (inactive); with SN12C it was > 100 µM (inactive); in the test on HCT-15, 49.4 µM. Moreover, the GI50 is 30.1 µM (inactive) in the test on NCI-H522; 81.5 µM (inactive) in the test on LOX IMVI; > 100 µM (inactive) in the test with SNB-75; 29.8 µM (inactive) with HOP-92; 46.3 µM (inactive) with NCI-H23; > 100 µM (inactive) with IGROV-1. Also, the GI50 in the test with TK-10 was 32.5 µM (inactive); with SF-268, > 100 µM (inactive); in the test with A549 it was 83.8 µM (inactive); with UACC-257 it was 34.4 µM (inactive); in the test on UACC-62, 64.7 µM (inactive).
As for `O=c1c2cccnc2ncn1CCN1CCCCC1`, the GI50 in the test on KM12, with SK-MEL-2, in the test with HCT-116, with CAKI-1, with SN12C and with NCI-H522 was > 100 µM (inactive) in each case. Further, the GI50 in the test on LOX IMVI, with SNB-75, in the test with HOP-92, in the test with NCI-H23, in the test on IGROV-1 and in the test on TK-10 was > 100 µM (inactive) each time. Further, the GI50 with SF-268, in the test on A549, with SK-MEL-28 and in the test on UACC-62 was > 100 µM (inactive) in each case.
On to `CC(C)(C)c1cc2c3c(c1)C(C(F)(F)F)(C(F)(F)F)O[Te]3(C)OC2(C(F)(F)F)C(F)(F)F`, for which the GI50 with KM12 is > 100 µM (inactive); in the test with SK-MEL-2, > 100 µM (inactive); in the test on HCT-116, > 100 µM (inactive); in the test with CAKI-1, > 100 µM (inactive); with SN12C, > 100 µM (inactive); with HCT-15 it was more than 100 µM. The GI50 in the test with NCI-H522, in the test on LOX IMVI, with NCI-H23, in the test on IGROV-1, in the test on TK-10 and in the test with SF-268 was > 100 µM (inactive) throughout. The GI50 in the test with A549, with SK-MEL-28, with UACC-257 and in the test on UACC-62 was > 100 µM (inactive) in each case.
For the compound `COc1ccc2nc3c(C(=O)NCCN(C)C)cccc3nc2c1`, the GI50 is 5.98 µM (inactive) in the test with KM12; 6.21 µM (inactive) with SK-MEL-2; 3.32 µM (inactive) in the test on HCT-116; 3.75 µM (inactive) in the test on CAKI-1; 3.41 µM (inactive) with SN12C; 3.93 µM in the test with HCT-15. Also, the GI50 is 3.34 µM (inactive) in the test on LOX IMVI; 7.35 µM (inactive) in the test on SNB-75; 4.34 µM (inactive) with HOP-92; 4.73 µM (inactive) with NCI-H23; 5.61 µM (inactive) in the test with IGROV-1; 3.37 µM (inactive) in the test with TK-10. For the same compound, the GI50 in the test with SF-268 is 7.36 µM (inactive); in the test on A549 it was 4.28 µM (inactive); in the test on SK-MEL-28, 8.3 µM (inactive); in the test on UACC-257, 3.91 µM (inactive); in the test on UACC-62, 5.55 µM (inactive).
`N#Cc1c2nc3ccccc3nc2n2ccccc12`: the GI50 with KM12 was > 100 µM (inactive); with SK-MEL-2 it was > 100 µM (inactive); in the test on HCT-116 it was > 100 µM (inactive); in the test on CAKI-1, > 100 µM (inactive); in the test on SN12C, > 100 µM (inactive); with HCT-15, more than 100 µM. Besides, the GI50 with NCI-H522, in the test on LOX IMVI, in the test on SNB-75, with NCI-H23, in the test with IGROV-1 and in the test on TK-10 was > 100 µM (inactive) throughout. Moreover, the GI50 with SF-268, in the test with A549, in the test with SK-MEL-28, with UACC-257 and with UACC-62 was > 100 µM (inactive) each time.
As to `CCOC(=O)CN.CCOC(=O)Nc1ccc(S(=O)(=O)OC)cc1.CCOC(=O)Nc1ccc(S(=O)(=O)OC)cc1`, the GI50 with KM12 was > 50 µM (inactive); in the test with SK-MEL-2, > 50 µM (inactive); in the test on HCT-116, > 50 µM (inactive); with CAKI-1, > 50 µM (inactive); in the test on SN12C it was > 50 µM (inactive); in the test on HCT-15, more than 50 µM. Besides, the GI50 in the test on LOX IMVI, in the test on SNB-75, in the test on HOP-92, in the test with NCI-H23, in the test with IGROV-1 and with TK-10 was > 50 µM (inactive) in each case. The GI50 in the test on SF-268, in the test with A549, in the test on SK-MEL-28, in the test with UACC-257 and with UACC-62 was > 50 µM (inactive) each time.
On to `C#CCOCn1cnc2c(Sc3c([N+](=O)[O-])ncn3C)ncnc21`, for which the GI50 was > 100 µM (inactive) with KM12; > 100 µM (inactive) in the test on SK-MEL-2; > 100 µM (inactive) in the test with CAKI-1; > 100 µM (inactive) in the test on SN12C; more than 100 µM in the test with HCT-15; 48.3 µM (inactive) in the test on NCI-H522. Also, the GI50 was > 100 µM (inactive) in the test with LOX IMVI; 22.8 µM (inactive) in the test on SNB-75; > 100 µM (inactive) in the test on HOP-92; > 100 µM (inactive) in the test on NCI-H23; > 100 µM (inactive) with IGROV-1; > 100 µM (inactive) with TK-10. Moreover, the GI50 with SF-268, in the test on A549, in the test with SK-MEL-28, in the test with UACC-257 and in the test on UACC-62 was > 100 µM (inactive) throughout.
Take `CC12OC3CC(O1)C1(C=O)C4CCC5(C)C(c6ccc(=O)oc6)CCC5(O)C4CCC1(C3)O2` (stereo unspecified): the GI50 is 0.379 µM (active) with KM12; 0.268 µM (active) in the test with SK-MEL-2; 0.0537 µM (active) in the test on HCT-116; 0.207 µM (active) with CAKI-1; 0.0621 µM (active) in the test on SN12C; 0.212 µM in the test on HCT-15. For the same compound, the GI50 was 0.0479 µM (active) in the test on NCI-H522; 0.177 µM (active) in the test on LOX IMVI; 0.252 µM (active) in the test on SNB-75; 0.339 µM (active) in the test on HOP-92; 0.341 µM (active) in the test with IGROV-1; 0.143 µM (active) in the test with TK-10. The GI50 in the test on SF-268 is 0.103 µM (active); with A549, 0.0611 µM (active); in the test on SK-MEL-28, 0.491 µM (active); in the test on UACC-257, 0.234 µM (active); with UACC-62, 0.288 µM (active).
As for `Cc1ccc(O)c(C(=O)CCCC(=O)c2cc(C)ccc2O)c1`, the GI50 was > 100 µM (inactive) in the test with KM12; > 100 µM (inactive) with SK-MEL-2; > 100 µM (inactive) in the test on CAKI-1; > 100 µM (inactive) with SN12C; 45.8 µM in the test with HCT-15; 63.8 µM (inactive) in the test on NCI-H522. Further, the GI50 in the test on LOX IMVI is 57.1 µM (inactive); with SNB-75, 81.5 µM (inactive); with HOP-92, 61 µM (inactive); with NCI-H23, > 100 µM (inactive); with IGROV-1, > 100 µM (inactive); in the test on TK-10, 48.1 µM (inactive). The GI50 in the test on SF-268, in the test with SK-MEL-28, with UACC-257 and in the test with UACC-62 was > 100 µM (inactive) in each case.
